Source: patent publication US8183046B2, “Temperature resistant pH buffers for use at low temperatures” (The Board of Trustees of the University of Illinois, priority 2007, dated 2012)
“And” between values parts separate entries of the source, which are not always exact repeats. Identical values can stand only once. Values belong to the compound of their own block, whether it stands above or below them. Residues, ends and D or L forms follow the SMILES beside them.

How the values were obtained:
[1] = cited from earlier work; for Effective pH Range (pK1): line labelled pK1; for Effective pH Range (pK2): line labelled pK2; for Effective pH Range (pK3): line labelled pK3; for Effective pH Range: buffer without pK index; for pKa values for the single buffers, second value: Table 5, in parentheses
[2] = Temperature dependence of pH of buffer solutions, ratiometric UV-vis (A418/A623) with indicator 1; format: physicochemical; settings: for pH at plateau: plateau 150 K to 90 K; for pH at 298 K: single buffers; for direction of pH change as the solution is equilibrated at lower temperatures: FIG. 4, 50 mM buffer solutions containing 75% glycerol
[3] = Freeze-thaw storage stability of oxacillin solutions in various buffers, HPLC; format: physicochemical
[4] = cited from earlier work
[5] = pH-sensitive dye; cited from earlier work
[6] = cited from earlier work; remark: listed apart in the source
[7] = Table 3, change in pH with decreasing temperature, pH 6.1 at 298 K

Compound: O=C(O)CC(O)(CC(=O)O)C(=O)O [citrate]
Effective pH Range (pK1) ([1]; Table 2): 2.2–6.5
Effective pH Range (pK2) ([1]; Table 2): 3.0–6.2
Effective pH Range (pK3) ([1]; Table 2): 5.5–7.2

Compound: CC(N)(CO)CO [AMPD, 2-amino-2-methyl-1,3-propanediol]
Effective pH Range ([1]; Table 2): 7.8–9.7

Compound: O=S(=O)(O)CCCCNC1CCCCC1 [CABS]
Effective pH Range ([1]; Table 2): 10.0–11.4

ΔpH [2, 7]: +2.1
pH at plateau ([2]; Table 3, pH 6.1 at 298 K): 8.2
pH at 298 K ([2]; Table 3): 6.1
Compound: OCC(CO)(CO)NCCCNC(CO)(CO)CO [BIS-TRIS propane, 1,3-bis[tris(hydroxymethyl)methylamino]propane]
Effective pH Range ([1]; Table 2): 6.3–9.5
pKa at 25° C., pK2 ([1]; Table 2, pK2 or second value printed in the cell): 9.00
pKa values for the single buffers, second value [1]: 9.0

Compound: N [ammonium hydroxide]
Effective pH Range ([1]; Table 2): 8.8–9.9

Compound: C1CNCCN1 [piperazine]
Effective pH Range (pK1) ([1]; Table 2): 5.0–6.0
Effective pH Range (pK2) ([1]; Table 2): 9.5–9.8

hydrolysis of the antibiotic on storage, versus HEPES:KPhosphate (60:40) buffered solution ([3]; 200 μM in 50 mM BisTris Propane buffer pH 7.0, 193 K, freeze-thaw over eight days): greater hydrolysis
pH-induced hydrolysis under freeze-thaw storage conditions ([3]; 200 μM in 50 mM HEPES:KPhosphate (60:40) pH 7.0, 193 K, eight days): reduced
Compound: Cc1onc(-c2ccccc2)c1C(=O)N[C@@H]1C(=O)N2[C@@H]1SC(C)(C)[C@@H]2C(=O)O [oxacillin]

Compound: O=P(O)(O)O [KPhosphate, potassium phosphate]
ΔpH over a 208 K range ([2]; 298 K to 90 K, 50 mM buffer, pH 7.0): −0.50
direction of pH change as the solution is equilibrated at lower temperatures [2]: decreases
pH at plateau ([2]; Table 3, pH 7.0 at 298 K): 6.5
pH at plateau ([2]; Table 3, pH 8.0 at 298 K): 7.3
pH at 298 K ([2]; Table 3): 8.0 and 7.0
ΔpH ([2]; pH 7): −0.5
ΔpH ([2]; pH 8): −0.7
pH change ([2]; starting from pH 8.0, indicator 1): ~−0.7 units

Compound: CC(=O)[O-].[Na+] [Na-Acetate, sodium acetate]
pH at plateau ([2]; Table 3, pH 5.0 at 298 K): 5.4
pH at 298 K ([2]; Table 3): 5.0
ΔpH ([2]; pH 5): +0.4

Compound: NCC(=O)NCC(=O)O [glycylglycine] (H-Gly-Gly-OH)
Effective pH Range (pK1) ([1]; Table 2): 2.5–3.8
Effective pH Range (pK2) ([1]; Table 2): 7.5–8.9
pKa at 25° C., pK1 ([1]; Table 2, pK1 or first value printed in the cell): 3.14

Compound: O=S(=O)(O)CC(O)CN(CCO)CCO (centres unmarked) [DIPSO]
Effective pH Range ([1]; Table 2): 7.0–8.2

Compound: O=P(O)(O)OP(=O)(O)O [pyrophosphate]
Effective pH Range ([1]; Table 2): 7.0–9.0

Compound: CC(C)(N)CO [AMP, 2-amino-2-methyl-1-propanol]
Effective pH Range ([1]; Table 2): 8.7–10.4

Compound: COc1cccc2c1C(=O)c1c(O)c3c(c(O)c1C2=O)C[C@@](O)(C(=O)CO)C[C@@H]3O[C@H]1C[C@H](N)[C@H](O)[C@H](C)O1 [doxorubicin]
therapeutic activity upon repeated freeze-thaw treatments ([4]; freeze (−20° C.)-thaw (+37° C.), correlates with hydrolysis of the aminoglycoside bond): gradually reduces therapeutic activity
optimum pH for storage stable, ready-to-use formulations ([4]; storage at 4-8° C.): 3.0

Compound: NC(=O)CNCCS(=O)(=O)O [ACES]
Effective pH Range ([1]; Table 2): 6.1–7.5

Compound: CC(=O)O [acetate]
direction of pH change as the solution is equilibrated at lower temperatures [2]: increases

Compound: c1c[nH]cn1 [imidazole]
Effective pH Range ([1]; Table 2): 6.2–7.8

ΔpH ([2]; Table 3, change in pH with decreasing temperature, pH 6.0 at 298 K): +1.4
pH at plateau ([2]; Table 3, pH 6.0 at 298 K): 7.4
pH at 298 K ([2]; Table 3): 6.0
Compound: O=S(=O)(O)CCN1CCOCC1 [MES, 2-morpholinoethanesulfonic acid]

Compound: Cc1c(C2(c3cc(Br)c(O)c(Br)c3C)OS(=O)(=O)c3ccccc32)cc(Br)c(O)c1Br [Bromocresol green]
pKa [5]: 4.6

direction of pH change as the solution is equilibrated at lower temperatures [2]: increases
ΔpH ([2]; Table 3, change in pH with decreasing temperature, pH 7.0 at 298 K): +2.2
pH at plateau ([2]; Table 3, pH 7.0 at 298 K): 9.2
pH at 298 K ([2]; Table 3): 7.0
Compound: NC(CO)(CO)CO [Trizma, 2-Amino-2-(hydroxymethyl)-1,3-propanediol]
Effective pH Range ([1]; Table 2): 7.5–9.0

Compound: NCC(=O)O [glycine]
Effective pH Range (pK1) ([1]; Table 2): 2.2–3.6
Effective pH Range (pK2) ([1]; Table 2): 8.8–10.6

Compound: O=S(=O)(O)CC(O)CN1CCN(CC(O)CS(=O)(=O)O)CC1 (centres unmarked) [POPSO]
Effective pH Range ([1]; Table 2): 7.2–8.5

Compound: O=S(=O)(O)CC(O)CNC1CCCCC1 (centres unmarked) [CAPSO]
Effective pH Range ([1]; Table 2): 8.9–10.3

Compound: O=S(=O)(O)CCN1CCN(CCS(=O)(=O)O)CC1 [PIPES]
Effective pH Range ([1]; Table 2): 6.1–7.5

Compound: thrombin-activated porcine factor VIII: thrombin-activated porcine factor VIII, heterotrimeric coagulation protein
coagulation activity between pH 7 and 8 ([6]; between pH 7 and 8): sharp decline
state of the protein at pH 6.0 ([6]; pH 6.0 at 4° C. or 20° C.): stable, active, heterotrimer

Compound: CC(C)(CO)NCC(O)CS(=O)(=O)O (centres unmarked) [AMPSO]
Effective pH Range ([1]; Table 2): 8.3–9.7

Compound: O=S(=O)(O)CCNC1CCCCC1 [CHES]
Effective pH Range ([1]; Table 2): 8.6–10.0

Compound: O=S(=O)(O)CCCNC(CO)(CO)CO [TAPS]
Effective pH Range ([1]; Table 2): 7.7–9.1

Compound: phosphate
Effective pH Range (pK1) ([1]; Table 2): 1.7–2.9
Effective pH Range (pK2) ([1]; Table 2): 5.8–8.0
Effective pH Range (pK3) ([1]; Table 2): 11.5–13.0

Compound: O=C(O)O [carbonate]
Effective pH Range (pK1) ([1]; Table 2): 6.0–8.0
Effective pH Range (pK2) ([1]; Table 2): 9.5–11.1

Compound: O=C(O)C(O)C(O)C(=O)O (centres unmarked) [Tartrate]
pKa values for the single buffers, second value [1]: (3.00, 4.40)^1

Compound: O=S(=O)(O)CCCCN1CCN(CCO)CC1 [HEPBS]
Effective pH Range ([1]; Table 2): 7.6–9.0

Compound: O=S(=O)(O)CCCCNC(CO)(CO)CO [TABS]
Effective pH Range ([1]; Table 2): 8.2–9.6

Compound: O=C(O)CC(O)C(=O)O (centres unmarked) [malate]
Effective pH Range (pK1) ([1]; Table 2): 2.7–4.2
Effective pH Range (pK2) ([1]; Table 2): 4.0–6.0

Compound: O=S(=O)(O)CC(O)CNC(CO)(CO)CO (centres unmarked) [TAPSO]
Effective pH Range ([1]; Table 2): 7.0–8.2

direction of pH change as the solution is equilibrated at lower temperatures [2]: increases
ΔpH [2, 7]: +1.6
pH at plateau ([2]; Table 3, pH 6.1 at 298 K): 7.7
pH at 298 K ([2]; Table 3): 6.1
increase of pH upon lowering the temperature ([2]; room temperature to ~170 K, 50 mM, 75% glycerol): about 1.6 pH unit
degree of pH change with temperature, 50% glycerol versus 75% glycerol ([2]; sample containing 50% glycerol, FIG. 6): somewhat larger
Compound: O=S(=O)(O)CCCN1CCOCC1 [MOPS, 3-N-morpholino propansulfonic acid]
Effective pH Range ([1]; Table 2): 6.5–7.9

Compound: O=S(=O)(O)CCCNC1CCCCC1 [CAPS]
Effective pH Range ([1]; Table 2): 9.7–11.1

Compound: O=C(O)CNC(CO)(CO)CO [tricine]
Effective pH Range ([1]; Table 2): 7.4–8.8
